According to ChEMBL document CHEMBL5126566, “Comparison of three zinc binding groups for HDAC inhibitors - A potency, selectivity and enzymatic kinetics study” (Bioorg Med Chem Lett, 2022):
The source made the active and inactive calls. The calls are words filed in the database; no cut-off is given here.

Key:
[1] = target: T1, Histone deacetylase 1 (Homo sapiens, UniProt Q13547); assay: Inhibition of HDAC1 (unknown origin) preincubated for 60 mins
[2] = target: T2, Histone deacetylase 3 (Homo sapiens, UniProt O15379); assay: Inhibition of HDAC3 (unknown origin) preincubated for 30 mins
T2 sequence (O15379 whole entry): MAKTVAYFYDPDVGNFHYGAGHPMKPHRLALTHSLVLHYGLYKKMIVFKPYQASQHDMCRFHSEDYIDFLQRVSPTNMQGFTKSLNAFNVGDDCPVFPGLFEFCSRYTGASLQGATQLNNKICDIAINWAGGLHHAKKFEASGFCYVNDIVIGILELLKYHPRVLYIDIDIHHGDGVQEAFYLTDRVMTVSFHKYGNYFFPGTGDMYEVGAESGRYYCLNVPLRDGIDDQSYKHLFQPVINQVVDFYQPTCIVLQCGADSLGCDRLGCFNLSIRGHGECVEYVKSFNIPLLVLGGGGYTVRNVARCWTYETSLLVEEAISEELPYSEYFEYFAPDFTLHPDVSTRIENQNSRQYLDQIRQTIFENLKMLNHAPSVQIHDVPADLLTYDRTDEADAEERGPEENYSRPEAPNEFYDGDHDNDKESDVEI

[3] = target: T3, Polyamine deacetylase HDAC10 (Homo sapiens, UniProt Q969S8); assay: Inhibition of HDAC10 (unknown origin)
T3 sequence (Q969S8 whole entry): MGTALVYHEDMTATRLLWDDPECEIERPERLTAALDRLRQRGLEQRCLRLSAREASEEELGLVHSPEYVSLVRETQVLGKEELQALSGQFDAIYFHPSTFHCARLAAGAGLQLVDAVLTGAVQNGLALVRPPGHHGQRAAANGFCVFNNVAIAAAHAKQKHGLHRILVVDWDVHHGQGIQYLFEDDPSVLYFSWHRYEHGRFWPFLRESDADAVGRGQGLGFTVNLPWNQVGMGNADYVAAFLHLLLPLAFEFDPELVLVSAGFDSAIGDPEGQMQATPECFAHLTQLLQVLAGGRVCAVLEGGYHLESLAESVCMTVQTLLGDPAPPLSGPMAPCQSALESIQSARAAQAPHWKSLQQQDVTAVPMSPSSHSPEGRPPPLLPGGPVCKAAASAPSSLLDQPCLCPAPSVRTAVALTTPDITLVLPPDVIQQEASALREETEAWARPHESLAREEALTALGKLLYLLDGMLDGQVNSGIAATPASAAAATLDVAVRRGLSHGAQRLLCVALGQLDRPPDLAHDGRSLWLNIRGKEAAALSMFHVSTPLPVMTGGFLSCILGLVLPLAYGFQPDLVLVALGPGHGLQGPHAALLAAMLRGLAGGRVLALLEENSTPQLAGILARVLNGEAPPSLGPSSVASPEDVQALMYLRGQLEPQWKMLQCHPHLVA

[4] = target: T1, Histone deacetylase 1; assay: Inhibition of HDAC1 (unknown origin) preincubated for 90 mins
[5] = target: Histone deacetylase 9 (Homo sapiens, UniProt Q9UKV0); assay: Inhibition of HDAC9 (unknown origin)
Chain of Histone deacetylase 9 (Q9UKV0 whole entry): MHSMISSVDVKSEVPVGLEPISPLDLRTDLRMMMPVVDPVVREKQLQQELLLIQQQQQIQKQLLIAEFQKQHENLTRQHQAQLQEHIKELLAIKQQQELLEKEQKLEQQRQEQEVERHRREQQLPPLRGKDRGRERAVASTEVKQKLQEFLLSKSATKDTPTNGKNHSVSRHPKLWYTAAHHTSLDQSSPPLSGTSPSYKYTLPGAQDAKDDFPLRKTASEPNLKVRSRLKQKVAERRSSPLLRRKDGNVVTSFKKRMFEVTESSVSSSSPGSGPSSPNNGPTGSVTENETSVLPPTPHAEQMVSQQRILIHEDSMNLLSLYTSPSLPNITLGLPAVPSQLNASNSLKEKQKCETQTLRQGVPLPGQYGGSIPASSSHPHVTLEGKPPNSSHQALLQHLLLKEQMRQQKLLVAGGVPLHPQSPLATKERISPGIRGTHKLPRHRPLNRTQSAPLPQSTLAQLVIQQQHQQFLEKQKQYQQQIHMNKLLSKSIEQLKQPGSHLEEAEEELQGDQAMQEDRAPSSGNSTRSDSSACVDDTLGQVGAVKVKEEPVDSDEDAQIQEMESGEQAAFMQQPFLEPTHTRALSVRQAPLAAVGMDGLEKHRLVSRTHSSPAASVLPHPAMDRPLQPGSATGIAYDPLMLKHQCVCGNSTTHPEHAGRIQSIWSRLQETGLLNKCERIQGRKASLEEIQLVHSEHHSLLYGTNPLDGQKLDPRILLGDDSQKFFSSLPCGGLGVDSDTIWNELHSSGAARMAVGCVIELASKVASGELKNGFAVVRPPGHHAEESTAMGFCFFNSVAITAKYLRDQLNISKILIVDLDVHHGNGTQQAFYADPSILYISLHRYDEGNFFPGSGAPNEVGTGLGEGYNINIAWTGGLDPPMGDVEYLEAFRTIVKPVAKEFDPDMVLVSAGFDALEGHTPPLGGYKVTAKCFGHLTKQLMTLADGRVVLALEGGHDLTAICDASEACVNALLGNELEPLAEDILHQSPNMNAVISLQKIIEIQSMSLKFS

[6] = target: T1, Histone deacetylase 1; assay: Inhibition of HDAC1 (unknown origin)
[7] = target: T4, Protein deacetylase HDAC6 (Homo sapiens, UniProt Q9UBN7); assay: Inhibition of HDAC6 (unknown origin)
T4 sequence (Q9UBN7 whole entry): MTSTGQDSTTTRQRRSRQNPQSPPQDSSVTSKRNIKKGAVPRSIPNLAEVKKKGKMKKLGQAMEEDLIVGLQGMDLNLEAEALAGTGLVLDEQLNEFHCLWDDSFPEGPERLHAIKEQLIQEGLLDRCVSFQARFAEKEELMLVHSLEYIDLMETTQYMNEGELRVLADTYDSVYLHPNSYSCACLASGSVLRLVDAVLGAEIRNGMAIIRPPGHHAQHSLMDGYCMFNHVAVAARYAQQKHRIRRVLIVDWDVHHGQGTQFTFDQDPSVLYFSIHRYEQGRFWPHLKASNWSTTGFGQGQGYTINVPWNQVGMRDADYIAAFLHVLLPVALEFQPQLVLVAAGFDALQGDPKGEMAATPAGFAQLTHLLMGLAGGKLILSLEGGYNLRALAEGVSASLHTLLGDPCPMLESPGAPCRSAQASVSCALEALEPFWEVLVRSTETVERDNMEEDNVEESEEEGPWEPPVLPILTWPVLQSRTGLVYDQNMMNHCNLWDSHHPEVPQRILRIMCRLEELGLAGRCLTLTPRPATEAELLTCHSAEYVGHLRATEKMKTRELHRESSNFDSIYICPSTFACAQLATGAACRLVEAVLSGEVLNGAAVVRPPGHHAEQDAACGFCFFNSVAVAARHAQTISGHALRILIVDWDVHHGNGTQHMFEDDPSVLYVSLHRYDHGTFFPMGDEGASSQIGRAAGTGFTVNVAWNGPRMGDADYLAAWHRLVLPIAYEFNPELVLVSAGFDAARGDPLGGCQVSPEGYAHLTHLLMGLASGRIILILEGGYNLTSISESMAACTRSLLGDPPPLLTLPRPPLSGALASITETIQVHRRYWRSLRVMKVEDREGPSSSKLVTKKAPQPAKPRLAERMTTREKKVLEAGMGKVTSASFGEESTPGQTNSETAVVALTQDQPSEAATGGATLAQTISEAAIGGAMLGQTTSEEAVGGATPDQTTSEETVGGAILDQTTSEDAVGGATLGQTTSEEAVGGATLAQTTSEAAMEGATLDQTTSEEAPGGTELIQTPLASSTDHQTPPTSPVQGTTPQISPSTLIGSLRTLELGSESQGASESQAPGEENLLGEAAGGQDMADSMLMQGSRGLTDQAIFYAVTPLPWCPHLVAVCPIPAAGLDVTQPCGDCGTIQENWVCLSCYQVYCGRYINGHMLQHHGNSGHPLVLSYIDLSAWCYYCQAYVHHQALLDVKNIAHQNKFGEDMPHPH

[8] = target: T1, Histone deacetylase 1; assay: Inhibition of HDAC1 (unknown origin) preincubated for 120 mins
[9] = target: Histone deacetylase 5 (Homo sapiens, UniProt Q9UQL6); assay: Inhibition of HDAC5 (unknown origin)
Chain of Histone deacetylase 5 (Q9UQL6 whole entry): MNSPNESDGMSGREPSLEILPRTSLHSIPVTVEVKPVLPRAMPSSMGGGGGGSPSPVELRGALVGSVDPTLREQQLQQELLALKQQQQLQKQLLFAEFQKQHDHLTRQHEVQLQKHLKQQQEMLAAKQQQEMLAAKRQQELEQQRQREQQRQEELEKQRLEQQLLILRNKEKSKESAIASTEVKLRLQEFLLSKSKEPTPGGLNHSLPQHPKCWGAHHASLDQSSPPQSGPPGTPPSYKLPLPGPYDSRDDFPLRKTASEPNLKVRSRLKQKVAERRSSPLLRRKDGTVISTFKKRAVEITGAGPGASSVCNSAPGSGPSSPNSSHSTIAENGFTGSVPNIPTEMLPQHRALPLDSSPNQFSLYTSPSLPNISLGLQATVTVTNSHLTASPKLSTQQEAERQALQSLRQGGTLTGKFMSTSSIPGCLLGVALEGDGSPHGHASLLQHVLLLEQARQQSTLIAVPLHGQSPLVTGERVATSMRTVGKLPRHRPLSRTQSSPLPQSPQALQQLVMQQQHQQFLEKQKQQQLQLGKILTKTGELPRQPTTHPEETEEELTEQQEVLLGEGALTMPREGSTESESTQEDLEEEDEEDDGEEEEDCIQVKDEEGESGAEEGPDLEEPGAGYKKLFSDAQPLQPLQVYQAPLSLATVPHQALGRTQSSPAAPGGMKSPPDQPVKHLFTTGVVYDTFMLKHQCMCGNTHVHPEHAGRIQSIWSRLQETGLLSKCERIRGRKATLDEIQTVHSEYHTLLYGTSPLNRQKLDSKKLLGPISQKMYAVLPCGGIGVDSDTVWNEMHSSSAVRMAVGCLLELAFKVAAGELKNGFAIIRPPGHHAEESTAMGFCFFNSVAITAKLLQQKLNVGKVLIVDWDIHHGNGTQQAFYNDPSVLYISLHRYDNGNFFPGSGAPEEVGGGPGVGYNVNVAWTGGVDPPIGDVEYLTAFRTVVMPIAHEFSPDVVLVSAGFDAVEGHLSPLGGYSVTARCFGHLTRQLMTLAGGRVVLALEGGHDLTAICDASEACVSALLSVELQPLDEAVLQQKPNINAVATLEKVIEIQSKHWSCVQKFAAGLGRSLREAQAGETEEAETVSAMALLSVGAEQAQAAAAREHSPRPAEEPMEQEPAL

[10] = target: T1, Histone deacetylase 1; assay: Inhibition of HDAC1 (unknown origin) preincubated for 30 mins
[11] = target: T1, Histone deacetylase 1; assay: Competitive inhibition of HDAC1 (unknown origin) at 444 to 1500 nM by Lineweaver-Burk plot analysis; settings: dose 444-1500 nM
[12] = target: T2, Histone deacetylase 3; assay: Inhibition of HDAC3 (unknown origin) preincubated for 60 mins
[13] = target: T5, Histone deacetylase 11 (Homo sapiens, UniProt Q96DB2); assay: Inhibition of HDAC11 (unknown origin)
T5 sequence (Q96DB2 whole entry): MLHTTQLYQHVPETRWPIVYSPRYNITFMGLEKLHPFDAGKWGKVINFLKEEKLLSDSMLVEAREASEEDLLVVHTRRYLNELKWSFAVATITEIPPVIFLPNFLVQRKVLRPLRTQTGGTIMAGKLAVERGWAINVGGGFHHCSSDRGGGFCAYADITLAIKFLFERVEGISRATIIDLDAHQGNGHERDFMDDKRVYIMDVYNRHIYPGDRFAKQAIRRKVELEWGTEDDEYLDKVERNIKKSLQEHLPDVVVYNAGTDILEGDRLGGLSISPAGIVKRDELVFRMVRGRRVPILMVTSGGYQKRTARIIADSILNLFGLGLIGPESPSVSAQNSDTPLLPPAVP

[14] = target: T6, Histone deacetylase 8 (Homo sapiens, UniProt Q9BY41); assay: Inhibition of HDAC8 (unknown origin)
T6 sequence (Q9BY41 whole entry): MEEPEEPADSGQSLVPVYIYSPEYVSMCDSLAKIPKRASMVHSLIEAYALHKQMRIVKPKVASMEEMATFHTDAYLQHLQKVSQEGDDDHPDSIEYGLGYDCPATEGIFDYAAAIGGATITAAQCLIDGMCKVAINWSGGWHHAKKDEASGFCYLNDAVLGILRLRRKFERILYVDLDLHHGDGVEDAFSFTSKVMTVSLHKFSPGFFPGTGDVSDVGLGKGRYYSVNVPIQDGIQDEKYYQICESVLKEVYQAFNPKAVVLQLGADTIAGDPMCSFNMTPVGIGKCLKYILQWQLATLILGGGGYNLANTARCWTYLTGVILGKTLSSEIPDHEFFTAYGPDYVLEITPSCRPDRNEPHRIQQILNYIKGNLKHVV

[15] = target: T2, Histone deacetylase 3; assay: Inhibition of HDAC3 (unknown origin) preincubated for 90 mins
[16] = target: Histone deacetylase 4 (Homo sapiens, UniProt P56524); assay: Inhibition of HDAC4 (unknown origin)
Chain of Histone deacetylase 4 (P56524 whole entry): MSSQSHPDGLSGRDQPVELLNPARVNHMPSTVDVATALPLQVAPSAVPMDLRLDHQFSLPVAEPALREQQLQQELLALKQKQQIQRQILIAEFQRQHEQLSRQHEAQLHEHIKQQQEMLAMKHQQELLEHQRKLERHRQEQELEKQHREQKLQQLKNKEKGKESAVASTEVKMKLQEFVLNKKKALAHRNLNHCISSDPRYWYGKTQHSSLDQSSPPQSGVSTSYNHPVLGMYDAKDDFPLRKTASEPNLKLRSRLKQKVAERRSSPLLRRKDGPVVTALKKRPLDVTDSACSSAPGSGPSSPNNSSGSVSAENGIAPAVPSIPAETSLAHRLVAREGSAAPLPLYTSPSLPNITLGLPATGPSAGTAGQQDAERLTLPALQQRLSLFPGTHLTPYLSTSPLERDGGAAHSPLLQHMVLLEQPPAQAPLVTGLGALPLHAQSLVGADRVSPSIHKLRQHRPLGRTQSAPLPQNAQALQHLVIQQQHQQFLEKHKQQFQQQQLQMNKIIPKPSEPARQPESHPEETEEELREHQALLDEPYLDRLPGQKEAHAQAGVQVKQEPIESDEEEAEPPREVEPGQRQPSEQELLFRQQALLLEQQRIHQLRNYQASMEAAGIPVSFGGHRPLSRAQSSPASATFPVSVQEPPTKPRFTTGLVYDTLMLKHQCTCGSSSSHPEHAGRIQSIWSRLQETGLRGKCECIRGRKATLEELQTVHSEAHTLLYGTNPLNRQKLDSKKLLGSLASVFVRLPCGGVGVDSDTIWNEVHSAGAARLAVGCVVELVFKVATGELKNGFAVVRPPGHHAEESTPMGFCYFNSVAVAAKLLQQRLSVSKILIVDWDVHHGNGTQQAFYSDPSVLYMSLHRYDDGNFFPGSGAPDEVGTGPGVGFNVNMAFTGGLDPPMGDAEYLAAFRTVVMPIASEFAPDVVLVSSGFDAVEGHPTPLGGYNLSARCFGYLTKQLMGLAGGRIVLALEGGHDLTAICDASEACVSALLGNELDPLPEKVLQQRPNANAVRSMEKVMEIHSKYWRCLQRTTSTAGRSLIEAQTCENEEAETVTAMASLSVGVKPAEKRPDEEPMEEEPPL

[17] = target: T7, Histone deacetylase 2 (Homo sapiens, UniProt Q92769); assay: Inhibition of HDAC2 (unknown origin) preincubated for 120 mins
T7 sequence (Q92769 whole entry): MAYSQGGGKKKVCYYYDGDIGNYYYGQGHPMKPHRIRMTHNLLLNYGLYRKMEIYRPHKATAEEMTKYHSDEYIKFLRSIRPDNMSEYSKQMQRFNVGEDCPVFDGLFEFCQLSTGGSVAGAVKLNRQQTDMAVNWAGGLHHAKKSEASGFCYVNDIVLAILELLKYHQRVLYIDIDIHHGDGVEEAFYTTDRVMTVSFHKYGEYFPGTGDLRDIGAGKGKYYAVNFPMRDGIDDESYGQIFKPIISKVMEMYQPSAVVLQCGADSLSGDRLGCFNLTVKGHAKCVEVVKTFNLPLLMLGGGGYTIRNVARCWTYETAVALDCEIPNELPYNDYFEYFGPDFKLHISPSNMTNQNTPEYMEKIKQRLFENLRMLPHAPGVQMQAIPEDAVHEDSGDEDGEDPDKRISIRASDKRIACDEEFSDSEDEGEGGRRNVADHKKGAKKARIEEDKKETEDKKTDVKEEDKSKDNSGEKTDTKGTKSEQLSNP

[18] = target: T2, Histone deacetylase 3; assay: Competitive inhibition of HDAC3 (unknown origin) at 444 to 1500 nM by Lineweaver-Burk plot analysis; settings: dose 444-1500 nM
[19] = target: T7, Histone deacetylase 2; assay: Inhibition of HDAC2 (unknown origin) preincubated for 60 mins
[20] = tested on: MV4-11; assay: Antiproliferative activity against human MV4-11 cells; type: functional, cell-based
[21] = target: T8, Histone deacetylase 7 (Homo sapiens, UniProt Q8WUI4); assay: Inhibition of HDAC7 (unknown origin)
T8 sequence (Q8WUI4 whole entry): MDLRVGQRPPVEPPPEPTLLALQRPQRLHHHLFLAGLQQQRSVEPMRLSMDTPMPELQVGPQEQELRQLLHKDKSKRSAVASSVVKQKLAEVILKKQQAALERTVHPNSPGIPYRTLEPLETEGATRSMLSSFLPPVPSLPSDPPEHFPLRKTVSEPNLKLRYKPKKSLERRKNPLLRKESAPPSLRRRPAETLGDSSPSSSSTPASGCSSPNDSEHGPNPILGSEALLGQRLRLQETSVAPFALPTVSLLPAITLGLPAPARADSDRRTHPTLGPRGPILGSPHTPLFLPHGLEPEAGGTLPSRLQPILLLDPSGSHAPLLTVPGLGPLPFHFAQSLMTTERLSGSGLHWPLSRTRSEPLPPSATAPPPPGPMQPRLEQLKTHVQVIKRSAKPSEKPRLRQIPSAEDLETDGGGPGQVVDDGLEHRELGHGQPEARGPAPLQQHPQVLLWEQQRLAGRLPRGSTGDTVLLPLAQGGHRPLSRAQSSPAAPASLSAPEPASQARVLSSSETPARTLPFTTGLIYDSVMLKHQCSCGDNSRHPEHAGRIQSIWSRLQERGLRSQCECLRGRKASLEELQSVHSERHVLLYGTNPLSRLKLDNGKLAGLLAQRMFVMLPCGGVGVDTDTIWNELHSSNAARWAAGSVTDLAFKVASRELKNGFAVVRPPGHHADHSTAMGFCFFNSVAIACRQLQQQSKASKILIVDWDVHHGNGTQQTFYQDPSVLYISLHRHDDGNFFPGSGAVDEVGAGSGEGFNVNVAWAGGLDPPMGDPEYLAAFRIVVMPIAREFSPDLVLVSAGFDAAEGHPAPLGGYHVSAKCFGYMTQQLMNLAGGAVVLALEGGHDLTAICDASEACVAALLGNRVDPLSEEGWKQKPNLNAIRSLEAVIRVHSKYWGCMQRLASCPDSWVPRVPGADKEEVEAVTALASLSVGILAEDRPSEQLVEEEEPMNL

[22] = target: T7, Histone deacetylase 2; assay: Inhibition of HDAC2 (unknown origin) preincubated for 5 mins
[23] = target: T1, Histone deacetylase 1; assay: Inhibition of HDAC1 (unknown origin) preincubated for 5 mins
[24] = target: T7, Histone deacetylase 2; assay: Inhibition of HDAC2 (unknown origin) preincubated for 30 mins
[25] = target: T7, Histone deacetylase 2; assay: Inhibition of HDAC2 (unknown origin)
[26] = target: T2, Histone deacetylase 3; assay: Inhibition of HDAC3 (unknown origin) preincubated for 120 mins
[27] = target: T7, Histone deacetylase 2; assay: Competitive inhibition of HDAC2 (unknown origin) at 444 to 1500 nM by Lineweaver-Burk plot analysis; settings: dose 444-1500 nM
[28] = target: T7, Histone deacetylase 2; assay: Inhibition of HDAC2 (unknown origin) preincubated for 90 mins
[29] = target: T2, Histone deacetylase 3; assay: Inhibition of HDAC3 (unknown origin) preincubated for 5 mins
[30] = target: T2, Histone deacetylase 3; assay: Inhibition of HDAC3 (unknown origin)

T1 sequence (Q13547 whole entry): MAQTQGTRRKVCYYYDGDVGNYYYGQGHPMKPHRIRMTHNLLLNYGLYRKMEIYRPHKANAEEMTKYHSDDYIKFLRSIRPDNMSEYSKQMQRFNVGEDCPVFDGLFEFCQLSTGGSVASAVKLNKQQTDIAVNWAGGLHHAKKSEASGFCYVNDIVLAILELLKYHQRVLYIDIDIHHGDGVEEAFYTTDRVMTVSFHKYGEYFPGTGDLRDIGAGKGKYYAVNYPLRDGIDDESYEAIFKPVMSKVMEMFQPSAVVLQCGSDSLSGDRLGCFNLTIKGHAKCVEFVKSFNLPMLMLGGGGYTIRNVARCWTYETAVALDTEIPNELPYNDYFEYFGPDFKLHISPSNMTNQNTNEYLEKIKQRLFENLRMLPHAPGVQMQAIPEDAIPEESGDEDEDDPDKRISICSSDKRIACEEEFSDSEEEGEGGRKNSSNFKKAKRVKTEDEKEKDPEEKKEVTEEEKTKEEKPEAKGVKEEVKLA

Nc1ccccc1NC(=O)CCCCCCC(=O)Nc1ccccc1
IC50 [1]: 1140 nM
IC50 [2]: 559 nM
IC50 [3]: > 10 µM
IC50 [4]: 1220 nM
IC50 [5]: > 10 µM
IC50 [6]: 828 nM
IC50 [7]: > 10 µM
IC50 [8]: 1070 nM
IC50 [9]: > 10 µM
IC50 [10]: 910 nM
inhibition [11]: Active
IC50 [12]: 535 nM
IC50 [13]: > 10 µM
IC50 [14]: > 10 µM
IC50 [15]: 391 nM
IC50 [16]: > 10 µM
IC50 [17]: 1270 nM
inhibition [18]: Active
IC50 [19]: 1170 nM
IC50 [20]: 7.24 µM
IC50 [21]: > 10 µM
IC50 [22]: 1160 nM
IC50 [23]: 944 nM
IC50 [24]: 1170 nM
IC50 [25]: 530 nM
IC50 [26]: 463 nM
inhibition [27]: Active
IC50 [28]: 1360 nM
IC50 [29]: 659 nM
IC50 [30]: 379 nM
